Some test systems named below: LXFL 529; BT-549; MDA-N; SNB-78; Hs-578T; M19-MEL; HOP-18.
Test in all cases: growth of human tumour cells (NCI), 48 h

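Tested at 5 concentrations; 48 h exposure; 96-well plates; endpoints linearly interpolated, else capped at highest concentration. GI50 = concentration required for 50% inhibition of growth.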 Activity calls are given as the source filed them. No stated cut-off is given here; in the data, active = GI50 up to about 1.1 µM and inactive = higher. Residues, ends and D or L forms follow the SMILES beside them. *: point of attachment. Boc = CC(C)(C)OC(=O)*

For the compound `CC1=NN(C(=O)c2ccccc2O)C(=O)/C1=C/c1ccc(O)cc1`, the GI50 with LXFL 529 is 0.141 µM (active); in the experiment on BT-549 it was 0.279 µM (active); in the experiment with MDA-N, 0.316 µM (active); with SNB-78, > 100 µM (inactive).

As for `C/C(=N\NC(=O)c1ccncc1)c1sc(-n2nc(-c3ccccc3)cc2-c2ccccc2)nc1C`, the GI50 was > 74.3 µM (inactive) in the experiment with Hs-578T, > 31.6 µM (inactive) with BT-549 and > 100 µM (inactive) in the experiment on MDA-N.

For `CC(C)(C)c1ccc(O)c(CN(Cc2cc(C(C)(C)C)ccc2O)C2CCCCC2)c1`, the GI50 was 22.6 µM (inactive) in the experiment on Hs-578T, 19.8 µM (inactive) in the experiment on BT-549 and 14.7 µM (inactive) in the experiment on MDA-N.

`C[C@]12CCC(=O)C=C1CC[C@@H]1[C@@H]2[C@@H](O)C[C@@]2(C)[C@H]1CC[C@]2(O)C(=O)COC(=O)C1CCCC1`: the GI50 in the experiment with Hs-578T, in the experiment on BT-549 and in the experiment with MDA-N was > 100 µM (inactive) in each case.

For `CO[C@H]1c2cccc3cccc(c23)[C@@H]1n1[nH]c(=O)n(C(C)(C)C)c1=O`, the GI50 in the experiment with Hs-578T, in the experiment on BT-549 and in the experiment with MDA-N was > 100 µM (inactive) in each case.

Consider `O=c1sc(Nc2ccc3ccccc3c2Cl)nc2ccccc12`, for which the GI50 in the experiment with Hs-578T is 57.1 µM (inactive); in the experiment with BT-549 it was > 100 µM (inactive).

For the compound `Nc1nc(Cl)cc(NCC2(CO)CC(c3ccccc3)C2)n1` (centres undefined), the GI50 in the experiment on Hs-578T was 19.2 µM (inactive); in the experiment on BT-549 it was 29.3 µM (inactive); in the experiment on MDA-N it was 31 µM (inactive).

Consider `CN(C)CN1C(=O)/C(=N\n2c(S)nnc2-c2ccncc2)c2ccccc21`, for which the GI50 with Hs-578T is 42.5 µM (inactive); in the experiment on BT-549, 94.4 µM (inactive); with MDA-N it was 16.7 µM (inactive).

As for `Cc1ncc2c(n1)CCC1=C2OS(=O)(=O)CC1N(C)C` (centres undefined), the GI50 with Hs-578T, with BT-549 and in the experiment with MDA-N was > 100 µM (inactive) each time.

With `CC(C)C1(O)C(=O)N(c2c(F)c(F)c(F)c(F)c2F)C(=S)N1CCSc1ccccc1` (centres undefined), the GI50 is 22.6 µM (inactive) in the experiment with Hs-578T, 16.1 µM (inactive) with BT-549 and 17.2 µM (inactive) in the experiment on MDA-N.

Turning to `Fc1cccc(C2ON=C(c3ccccc3)N2C23CC4CC(CC(C4)C2)C3)c1` (centres undefined), the GI50 in the experiment on Hs-578T, in the experiment with BT-549 and in the experiment on MDA-N was > 10 µM (inactive) each time.

Consider `O=C1c2ccccc2C(=O)c2c1sc1nc3ccccc3n21`, for which the GI50 was 0.0239 µM (active) with Hs-578T, 1.98 µM (inactive) in the experiment with BT-549 and 1.79 µM (inactive) in the experiment on MDA-N.

Regarding `COC(=O)c1s/c(=N\C(=S)N(C)C)n(-c2ccccc2)c1C(=O)OC`, the GI50 in the experiment with SNB-78 and in the experiment on M19-MEL was > 100 µM (inactive) in each case.

On to `Cc1ccc(/C=C2\Cc3c(C)cc(C)cc3C2=O)c(C(=O)O)c1`, for which the GI50 in the experiment on Hs-578T was 35.2 µM (inactive); in the experiment on BT-549, 28.6 µM (inactive); in the experiment with MDA-N, 89.3 µM (inactive).

For the compound `COc1ccc(C(=O)/C=C/S/C(=N/C#N)SC)cc1`, the GI50 with Hs-578T is 30.9 µM (inactive).

As for `COc1cc(OC)nc(-n2c(N)c(C(=O)O)c3ccc([N+](=O)[O-])cc3c2=O)n1`, the GI50 in the experiment on Hs-578T, in the experiment on BT-549 and in the experiment with MDA-N was > 100 µM (inactive) throughout.

On to `CCOC(=O)/C=C(\C(=O)OCC)n1ccc(=O)n(Cc2cnnn2CCCCOC(C)=O)c1=O`, for which the GI50 with Hs-578T is 16.3 µM (inactive); in the experiment with BT-549, 16.4 µM (inactive); with MDA-N, 22.5 µM (inactive).

For `COc1cccc(C(=O)C#Cc2cnc(OC)nc2OC)c1`, the GI50 in the experiment on Hs-578T was 7.66 µM (inactive); in the experiment with BT-549 it was 0.306 µM (active); in the experiment on MDA-N, 1.49 µM (inactive).

`Cn1c2ccccc2c2ccc3c(c21)C(=O)C(c1ccccc1)=CC3=O`: the GI50 with LXFL 529 was 16.1 µM (inactive); in the experiment on HOP-18, 0.0957 µM (active); in the experiment on SNB-78 it was > 100 µM (inactive); with M19-MEL, 24 µM (inactive).

For `CCCCNC(=O)OCCN=C1c2ccccc2C(Br)C(Br)c2ccccc21` (centres undefined), the GI50 was 36.1 µM (inactive) in the experiment on Hs-578T and 15.2 µM (inactive) in the experiment on MDA-N.

On to `O=C(Nc1ccn(C2CC(O)C(COC(c3ccccc3)(c3ccccc3)c3ccccc3)O2)c(=O)n1)c1ccccc1` (centres undefined), for which the GI50 in the experiment on Hs-578T was 2.31 µM (inactive); in the experiment on MDA-N it was 1.96 µM (inactive).

In the case of `O=C(CCC(=O)OCC1OC(O)(CC2OC(CO)C(O)C(O)C2O)C(O)C1O)OCc1ccccc1` (centres undefined), the GI50 with Hs-578T, in the experiment with BT-549 and with MDA-N was > 100 µM (inactive) in each case.

Regarding `OCC1=C[C@@](COCc2ccccc2)(OCc2ccccc2)[C@@H](OCc2ccccc2)[C@@H]1OCc1ccccc1`, the GI50 is 21.9 µM (inactive) with Hs-578T, 24.7 µM (inactive) in the experiment on BT-549 and 17.2 µM (inactive) with MDA-N.

Consider `CC(C)=CC(O)C(C(O)CCC1(C)OCCO1)S(=O)(=O)c1ccccc1` (centres undefined), for which the GI50 with BT-549 and in the experiment on MDA-N was > 100 µM (inactive) each time.

As to `O=c1cnnc2sc(=S)[nH]n12`, the GI50 in the experiment with Hs-578T is 2.22 µM (inactive); with BT-549 it was 14.1 µM (inactive); with MDA-N, 36.2 µM (inactive).

For the compound `COc1ccc(/C=C2/SC(c3ccccc3)N(NC(=O)CCCCCCCCC(=O)NN3C(=O)/C(=C\c4ccc(OC)c(OC)c4)SC3c3ccccc3)C2=O)cc1OC` (centres undefined), the GI50 in the experiment with BT-549 is > 100 µM (inactive); in the experiment with MDA-N it was 35.2 µM (inactive).

Regarding `OCC1COc2cc(Cl)c(Cl)cc2O1` (centres undefined), the GI50 with Hs-578T and in the experiment with MDA-N was > 10 µM (inactive) each time.

`COC(=O)[C@]1(C)CCCn2c(=O)n(-c3ccccc3)c(=O)n21`: the GI50 in the experiment on Hs-578T and with BT-549 was > 100 µM (inactive) each time.

Turning to `CCCCCCCCCCCCCCCCP(=O)([O-])OCC[N+](C)(C)C`, the results for the GI50 with Hs-578T, in the experiment with BT-549 and with MDA-N were 15.8 µM (inactive), 9.53 µM (inactive) and 15.4 µM (inactive), respectively.

With `CC(C)C(=O)Nc1cc(C(F)(F)F)ccc1[N+](=O)[O-]`, the GI50 in the experiment on Hs-578T, in the experiment with BT-549 and with MDA-N was > 100 µM (inactive) throughout.

With `O=C1OC(=O)c2c1cc1cc3c(cc1c2-c1ccc2c(c1)OCO2)OCO3`, the GI50 in the experiment on BT-549 and in the experiment on MDA-N was > 100 µM (inactive) throughout.

As for `COC(=O)c1cc2c3c(cc(N(C)C)c2[nH]1)N(C(=O)c1cc2cc(OC)c(OC)c(OC)c2[nH]1)CC3CCl` (centres undefined), the GI50 in the experiment with BT-549 is 0.018 µM (active); in the experiment with MDA-N, 0.00427 µM (active).

Regarding `O=C1O/C(=C\c2ccc(O)cc2)C(c2ccc(O)c(Cl)c2)=C1Br`, the results for the GI50 with Hs-578T, in the experiment with BT-549 and with MDA-N were 11.6 µM (inactive), 6.35 µM (inactive) and 8.57 µM (inactive), respectively.

Regarding `CC(C)(C)OC(=O)NC(CSSCC(NC(=O)OC(C)(C)C)C(=O)O)C(=O)O` (centres undefined), the GI50 in the experiment on Hs-578T, in the experiment on BT-549 and in the experiment on MDA-N was > 100 µM (inactive) throughout.

In the case of `Cc1ccc2nc(NC(=O)/C(Cc3nc4ccc(Cl)cc4nc3O)=N\NC(C)(C)C)sc2c1`, the results for the GI50 with Hs-578T, in the experiment with BT-549 and in the experiment on MDA-N were 18.2 µM (inactive), > 100 µM (inactive) and > 100 µM (inactive), respectively.

Regarding `Cc1cc(C)c(S(=O)(=O)N(CCCCCCN)OCCCN)c(C)c1`, the results for the GI50 in the experiment with Hs-578T, with BT-549 and with MDA-N were 13.8 µM (inactive), 17.8 µM (inactive) and 17.5 µM (inactive), respectively.

In the case of `N#CC(=S)Nc1ccc(F)cc1`, the GI50 is 32.6 µM (inactive) with BT-549 and 52.1 µM (inactive) in the experiment on MDA-N.

Consider `CCOC(=O)C(NC(=O)c1cccc(Cl)c1)(Nc1ccc(S(=O)(=O)Nc2cc(C)on2)cc1)C(F)(F)F` (centres undefined), for which the GI50 in the experiment with Hs-578T and in the experiment on MDA-N was > 100 µM (inactive) each time.

On to `Cc1c(N2C(=O)/C(=C/c3ccc(Cl)cc3)N=C2c2ccccc2)c(=O)n(-c2ccccc2)n1C`, for which the GI50 in the experiment with BT-549 was 47.4 µM (inactive); in the experiment with MDA-N it was 24.8 µM (inactive).

As to `O=C(NNC(=O)c1ccccc1O)c1ccc(O)cc1`, the GI50 in the experiment with Hs-578T is > 100 µM (inactive); in the experiment on BT-549, 40.6 µM (inactive); in the experiment with MDA-N, > 100 µM (inactive).

Consider `CCCCCCCCCCCCOCCOCCOCCOCCOCCOCC(=O)NC(Cc1ccccc1)C(=O)Oc1ccc([N+](=O)[O-])cc1` (centres undefined), for which the GI50 in the experiment with Hs-578T was 41.2 µM (inactive); with BT-549 it was 25.5 µM (inactive); with MDA-N it was 27.7 µM (inactive).

In the case of `CCN(CC)CCNC(=O)c1cc2cc(NC(=O)c3cc4cc(NC(=O)c5cc6cc(N)ccc6[nH]5)ccc4[nH]3)ccc2[nH]1`, the GI50 with Hs-578T, in the experiment with BT-549 and with MDA-N was > 100 µM (inactive) throughout.

In the case of `COc1ccc(-c2nc(-c3cnccn3)n(Cc3ccccc3)n2)cc1`, the GI50 in the experiment on BT-549 and in the experiment on MDA-N was > 100 µM (inactive) throughout.

As to `S=C(N/N=C/c1ccccn1)N1CCCCCC1`, the GI50 with Hs-578T is 11.5 µM (inactive); in the experiment with BT-549, < 0.01 µM (active); with MDA-N it was 0.0773 µM (active).

With `CC1CCC2C(C(=O)O[C@H]3C4CCO[C@@H](OC5OC(CO)C(O)C(O)C5O)C4[C@@]4(CO)O[C@@H]34)=CO[C@@H](OC3OC(CO)C(O)C(O)C3O)C12` (some centres undefined), the GI50 with Hs-578T, in the experiment with BT-549 and with MDA-N was > 10 µM (inactive) throughout.

Turning to `COc1cc(C2c3cc4c(cc3[C@@H](Oc3ccc(F)cc3)C3COC(=O)[C@H]23)OCO4)cc(OC)c1O` (some centres undefined), the values for the GI50 in the experiment on HOP-18 and in the experiment with M19-MEL were 87.1 µM (inactive) and 0.671 µM (active), respectively.

As to `COC(=O)C1OC2(CCCC3CC32)O[C@H]1C(=O)OC` (some centres undefined), the GI50 in the experiment on Hs-578T, with BT-549 and in the experiment on MDA-N was > 100 µM (inactive) throughout.

In the case of `COc1cc2c(cc1OC)-c1c3c(cc4c1[C@@H](C2)N(C)CC4)OCO3`, the GI50 with HOP-18 was 18.2 µM (inactive); with SNB-78 it was 11.6 µM (inactive); with M19-MEL it was 10.4 µM (inactive).

Consider `CC(NC(=O)C(NC(=O)OC(C)(C)C)C(C)C)C(=O)N1CCCC1C(=O)NCC(=O)NC(C(=O)NCC(=O)O)C(C)C` (centres undefined) (Boc-VAPGVG-OH; configuration not given here), for which the GI50 with MDA-N is > 100 µM (inactive).

Regarding `COc1cc(/C=C/C(=O)CC(=O)/C=C/c2ccc(O)c(OC)c2)ccc1O` [CURCUMIN], the GI50 in the experiment on Hs-578T is 10.9 µM (inactive); with BT-549 it was 4.97 µM (inactive).

With `CCOc1cc(C=O)ccc1O` [ETHYL VANILLIN], the GI50 with Hs-578T and in the experiment on MDA-N was > 100 µM (inactive) each time.

For the origin of these results see ChEMBL document CHEMBL1201862, “PubChem BioAssay data set” (2004).
